Data from patent publication US20230114123A1, “METHOD OF STIMULATING ASYMMETRIC DIVISION OF SATELLITE STEM CELLS” (Ottawa Hospital Research Institute, priority 2017, published 2023).

Columns and labels:
Format in all cases: cell-based, mouse
satellite cell divisions = test: FDB myofiber screening method validation (YFP(-) divisions); details: for percentage of YFP(-) divisions that were symmetric divisions: control 62% (Wnt7a experiment), control 45% (EGF / PTP1b experiment); for percentage of YFP(-) divisions that were asymmetric divisions: control treated cells 55%
Text: EGFR pathway activators may be identified in a method of screening potential activators. The method includes visualizing isolated, cultured, and stained Flexor Digitorum Brevis (FDB) myofibers from Myf5-Cre/ROSA26-YFP mice in a plurality of Z-stack planes to create a projection image. Muscle satellite cells are identified in the projection image based on Pax7 expression. Of the identified muscle satellite cells: (i) satellite stem cells are identified based on the absence of YFP expression, and (ii) committed satellite progenitor cells are identified based on yellow fluorescence protein (YFP) expression. A potential EGFR pathway activator is administered to the FDB myofibers. The number of symmetric divisions of satellite myogenic cells, identified by the production of two YFP(+) satellite cells, are counted; the number of symmetric satellite stem cell divisions, identified by the production of two YFP(−) satellite cells, are counted; and the number of asymmetric satellite cell divisions, identified by the production of one YFP(+) and one YFP(−) satellite cell, are counted. The potential EGFR pathway activator is identified as an EGFR pathway activator when the percent of YFP(−) divisions that are asymmetric divisions is greater than the corresponding percent in a control sample. The expression “YFP(−) divisions” refers to all cell divisions where one of the daughter cells is YFP(−).
Identification of EGFR pathway activators. Flexor Digitorum brevis (FDB) fibers were isolated from Myf5-Cre/Rosa-YFP mice and digested in 0.25% Collagenase Type I (Sigma) in DMEM (Dulbecco's modified Eagle's medium; high glucose, L-glutamine with 110 mg/ml sodium pyruvate) for 2.5-3 h. Myofibers were dissociated using gentle trituration with a glass pipette.
Myofibers are cultured at 37° C., 5% CO2 for 42 h in myofiber culture media (DMEM supplemented with 20% FBS(Wisent), 1% Chicken Embryo extract (MP Biomediacals), 1% Penicillin/Streptomycin (Cederlane) and 2.5 ng/ml basic Fibroblast Growth Factor (Cedarlane).
Myofibers are first fixed in 2% Paraformaldehyde (PFA) for 5 mins. Myofibers are blocked for 1-2 h in 1% Bovine Serum Albumin, 0.5% TritonX-100, 5% HS and 0.01% Sodium Azide. Primary antibodies are applied in blocking solution for 2 h at room temperature or at 4° C. overnight. Myofibers are washed with PBS and stained with appropriate fluorescently labeled secondary antibodies (Alexa Fluor 488, 546) for 1 hat room temperature. Following washing with PBS, fiber nuclei are stained with DAPI for 5 min. The following antibodies are used: mouse anti-Pax7 (Developmental Studies Hybridoma Bank (DSHB)), chicken anti-GFP (cat. no. ab13970, Abcam).
Satellite cells are focused based on Channel 3 (DAPI) staining. Autofocus is performed by sampling seven (7) z-stacks taken at […] intervals for an extended depth of field of 85.3 μm.
Z-stack images were consolidated to create a projection image with all satellite cells in focus. Image acquisition of a projection image for analysis was created from seven (7) Z-stack images taken at 6.5 μm intervals, for an extended depth of field of 45.5 μm at 200 (Objective 20×) magnification. The projection direction was centered, where the median stacks fall within the center of each myofiber. […]
Potential satellite cells were first identified based on Channel 1 (Pax7) signal, and separated from other satellite cells based on intensity of fluorescence between cells. […]

[1] = system: phosphorylated EGFR (p-EGFR); test: p-EGFR immunostaining of mdx EDL myofibers; details: 1 h with or without recombinant EGF 100 ng/mL, FIG. 3A
Protocol: Therefore, the inventors conclude that that EGFR signaling occurs normally in mdx satellite cells.
To assess the signaling status of EGFR in quiescent satellite cells, EDL muscles were fixed in 4% PFA immediately post-dissection. Myofiber bundles were teased from the fixed muscles by tweezers.
Immunostaining and Antibodies. EDL myofibers were fixed for 10 min in 2% PFA and washed with PBS. Fibers were blocked and permeablized in horse serum blocking buffer (5% horse serum, 1% BSA (Sigma), and 0.5% Triton X-100 (Sigma) in PBS) for 1 h at room temperature or at 4° C. over night. Primary antibodies were applied in blocking solution for 2 h at room temperature or at 4° C. over night. Samples were subsequently washed with PBS and stained with appropriate fluorescently labeled secondary antibodies (Alexa fluor 488, 546, or 647) for 1 h at room temperature. After washing with PBS, samples were mounted with Permafluor (Fisher).

mdx satellite cells = test: Mitotic orientation by p-Aurk staining, mdx myofibers 36 h; details: 36 h culture, recombinant EGF vs vehicle, FIG. 3B
Protocol: However, the rate of abnormal cell divisions in mdx satellite cells as evidenced by abnormal patterns of p-Aurk staining was unaffected by EGF stimulation. This observation implies that cell cycle dysregulation is not completely rescued by polarity signaling alone. […] Therefore, to assess whether EGF-driven asymmetric divisions could ameliorate the reduced generation of myogenic progenitors in mdx cultures, single EDL myofibers from mdx mice were cultured for 72 h and immunostained for the expression of Myog.
Characterization of Satellite Cell Divisions. The orientation of mitotic spindles in satellite cells was measured as described in Dumont et al. (2015). Single myofibers were fixed after 36 h of in vitro culture, as described above. Satellite cells were identified by Pax7 expression in the nucleus, as detected by immunofluorescene. Pax7 staining becomes cytoplasmic in mitotic satellite cells after the dissociation of the nuclear envelope, but is still discernable. […] Mitotic satellite cells with p-Aurk staining patterns that were not observed in WT cells, including monopolar, multipolar (>2), and abscission defects were quantified as abnormal. Mitotic orientations were manually counted according to the angle between the mitotic spindle and the tangential plane of the satellite cell's attachment point to the myofiber.

satellite cells = test: Mitotic orientation by p-Aurk centrosome staining, EDL myofibers 36 h; details: 36 h culture, recombinant EGF vs vehicle, FIGS. 2B and 2C
Protocol: The inventors cultured single EDL myofibers for 36 h and satellite cell centrosomes were detected by immunostaining for phosphorylated aurora kinase (p-Aurk).
Characterization of Satellite Cell Divisions. The orientation of mitotic spindles in satellite cells was measured as described in Dumont et al. (2015). Single myofibers were fixed after 36 h of in vitro culture, as described above. Satellite cells were identified by Pax7 expression in the nucleus, as detected by immunofluorescene. Pax7 staining becomes cytoplasmic in mitotic satellite cells after the dissociation of the nuclear envelope, but is still discernable. Mitotic satellite cells were identified by positive p-Aurk staining, which labels cells from pro-metaphase to cytokinesis. Mitotic satellite cells with p-Aurk staining patterns that were not observed in WT cells, including monopolar, multipolar (>2), and abscission defects were quantified as abnormal. Mitotic orientations were manually counted according to the angle between the mitotic spindle and the tangential plane of the satellite cell's attachment point to the myofiber.

CCc1oc2cc(S(=O)(=O)Nc3ccc(S(=O)(=O)Nc4nccs4)cc3)ccc2c1C(=O)c1cc(Br)c(O)c(Br)c1 [PTP1b inhibitor, 3-(3,5-dibromo-4-hydroxy-benzoyl)-2-ethyl-benzofuran-6-sulfonicacid-(4-(thiazol-2-ylsulfamyl)-phenyl)-amide, reference compound]
percentage of YFP(-) divisions that were symmetric divisions (satellite cell divisions): 33% | percentage of YFP(-) divisions that were asymmetric divisions (satellite cell divisions): 67%

EGF: human recombinant EGF protein (Life Technologies), direct activator of the EGFR pathway
p-EGFR staining in mdx fibers [1]: P-EGFR was only observed in mdx fibers treated with EGF | numbers of apicobasal orientated mitotic centrosomes, mdx satellite cells (mdx satellite cells): increased numbers of apicobasal orientated mitotic centrosomes | rate of abnormal cell divisions (abnormal patterns of p-Aurk staining), mdx satellite cells (mdx satellite cells): unaffected | percentage of YFP(-) divisions that were symmetric divisions (satellite cell divisions): 29% | percentage of YFP(-) divisions that were asymmetric divisions (satellite cell divisions): 71% | increase in the proportion of mitotic cells aligned along the apicobasal axis (satellite cells): 50%
